Data published in ChEMBL document CHEMBL1201862, “PubChem BioAssay data set” (2004).
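Following 48 hours of exposure in 96-well plates, responses at five concentrations were used to interpolate endpoints linearly. At the GI50, growth is halved.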 The source made the active and inactive calls. No stated cut-off is given here; in the data, active = GI50 up to about 1.1 µM and inactive = higher.

How the values were obtained:
Assay in all cases: NCI tumour cell line growth inhibition, 48 h
A549 = tested on: A549
SK-MEL-28 = tested on: SK-MEL-28
HCT-116 = tested on: HCT-116
K562 = tested on: K562
LXFL 529 = tested on: LXFL 529
SNB-19 = tested on: SNB-19
IGROV-1 = tested on: IGROV-1
NCI-H226 = tested on: NCI-H226
LOX IMVI = tested on: LOX IMVI
UACC-257 = tested on: UACC-257
OVCAR-3 = tested on: OVCAR-3
SK-MEL-2 = tested on: SK-MEL-2
M14 = tested on: M14
HT-29 = tested on: HT-29
HCT-15 = tested on: HCT-15
NCI-H460 = tested on: NCI-H460
OVCAR-8 = tested on: OVCAR-8
T47D = tested on: T47D
OVCAR-4 = tested on: OVCAR-4
HCC 2998 = tested on: HCC 2998

SMILES	GI50 (A549)	GI50 (SK-MEL-28)	GI50 (HCT-116)	GI50 (K562)	GI50 (LXFL 529)	GI50 (SNB-19)	GI50 (IGROV-1)	GI50 (NCI-H226)	GI50 (LOX IMVI)	GI50 (UACC-257)	GI50 (OVCAR-3)	GI50 (SK-MEL-2)	GI50 (M14)	GI50 (HT-29)	GI50 (HCT-15) [µM]	GI50 (NCI-H460)	GI50 (OVCAR-8)	GI50 (T47D)	GI50 (OVCAR-4)	GI50 (HCC 2998)
O=C(NCCc1ccccc1)C1C(=O)C(=O)N(CCc2ccccc2)C1=O (stereo unspecified)	> 100 µM (inactive)	> 100 µM (inactive)	> 100 µM (inactive)	> 100 µM (inactive)	> 100 µM (inactive)	> 100 µM (inactive)	> 100 µM (inactive)	> 100 µM (inactive)	> 100 µM (inactive)	> 100 µM (inactive)	> 100 µM (inactive)	> 100 µM (inactive)	> 100 µM (inactive)	> 100 µM (inactive)	> 100	–	–	–	–	–
O=C1OC(c2ccccc2)=N/C1=C\c1ccc([N+](=O)[O-])cc1	82 µM (inactive)	> 100 µM (inactive)	98.6 µM (inactive)	> 100 µM (inactive)	–	40.6 µM (inactive)	27.9 µM (inactive)	3.96 µM (inactive)	26.4 µM (inactive)	> 100 µM (inactive)	57.4 µM (inactive)	27.4 µM (inactive)	> 100 µM (inactive)	> 100 µM (inactive)	> 100	> 100 µM (inactive)	11.9 µM (inactive)	22.3 µM (inactive)	34.5 µM (inactive)	> 100 µM (inactive)
O=C(c1cccs1)N(C(=S)N1CCN(c2ccccc2)CC1)C1CCCCC1	> 100 µM (inactive)	> 100 µM (inactive)	> 100 µM (inactive)	> 100 µM (inactive)	> 100 µM (inactive)	> 100 µM (inactive)	> 100 µM (inactive)	–	> 100 µM (inactive)	> 100 µM (inactive)	> 100 µM (inactive)	> 100 µM (inactive)	> 100 µM (inactive)	> 100 µM (inactive)	> 100	> 100 µM (inactive)	> 100 µM (inactive)	–	> 100 µM (inactive)	–
O=C(O)CN1CCSc2ccccc2CN(CC(=O)O)CCSc2ccccc2C1	> 100 µM (inactive)	> 100 µM (inactive)	> 100 µM (inactive)	> 100 µM (inactive)	> 100 µM (inactive)	> 100 µM (inactive)	> 100 µM (inactive)	–	> 100 µM (inactive)	> 100 µM (inactive)	> 100 µM (inactive)	> 100 µM (inactive)	> 100 µM (inactive)	> 100 µM (inactive)	> 100	> 100 µM (inactive)	> 100 µM (inactive)	–	–	> 100 µM (inactive)
COc1ccc2c(c1O)C(=O)C(CCC(=O)O)CC2 (stereo unspecified)	> 100 µM (inactive)	> 100 µM (inactive)	> 100 µM (inactive)	–	> 100 µM (inactive)	> 100 µM (inactive)	> 100 µM (inactive)	–	> 100 µM (inactive)	> 100 µM (inactive)	> 100 µM (inactive)	–	> 100 µM (inactive)	> 100 µM (inactive)	> 100	> 100 µM (inactive)	> 100 µM (inactive)	–	> 100 µM (inactive)	> 100 µM (inactive)
C[C@]12C/C(=C/O)C(=O)C(O)=C1CC[C@@H]1C2CC[C@@]2(C)C1CC[C@@H]2O (stereo partly specified)	57.8 µM (inactive)	21.5 µM (inactive)	–	22.3 µM (inactive)	16.2 µM (inactive)	18.3 µM (inactive)	21.7 µM (inactive)	19.6 µM (inactive)	12 µM (inactive)	22.4 µM (inactive)	17.9 µM (inactive)	19.9 µM (inactive)	17.9 µM (inactive)	25.3 µM (inactive)	21.5	21.8 µM (inactive)	27.1 µM (inactive)	–	23.9 µM (inactive)	–
CCCc1ccc(NCc2cc(OC)c(OC)c(OC)c2)cc1	41.8 µM (inactive)	25.1 µM (inactive)	24.7 µM (inactive)	12.1 µM (inactive)	17 µM (inactive)	36.4 µM (inactive)	24.4 µM (inactive)	–	15.7 µM (inactive)	22.4 µM (inactive)	–	18.6 µM (inactive)	–	23.6 µM (inactive)	17.7	55 µM (inactive)	35.3 µM (inactive)	–	32.4 µM (inactive)	–
